According to paper PMC4830892, “A microarray-based approach to evaluate the functional significance of protein-binding motifs” (Analytical and Bioanalytical Chemistry, 2016):
Non-standard residues stand in square brackets, D forms with d. Residues, ends and D or L forms follow the SMILES beside them. pY = N[C@@H](Cc1ccc(OP(=O)(O)O)cc1)C(=O)O; Ahx = NCCCCCC(=O)O

How the values were obtained:
[1] = system: proteins in Jurkat cell lysate (total cellular proteome); assay: Competition of α-pY antibody binding with Jurkat cell lysate on peptide microarrays; conditions: for Kd: from EC50 and Kd α-pY by Cheng-Prusoff equation (Eq. 4), ± standard deviation
Method: (§1) Peptides that correspond to known interaction motifs involved in the formation of protein complexes in T cell signalling were purchased from EMC microcollections (Tübingen, Germany). All peptides carried an extra cysteine residue and a free N-terminus for immobilisation on the microarray substrates and a C-terminal amidation (see Electronic Supplementary Material (ESM), Table S1).
(§2) For generation of microarrays, peptide stock solutions (3 mM) in DMF were diluted 30 times with phosphate buffer (100 mM, pH 8) supplemented with 0.006 % (v/v) Triton X-100. N-Hydroxysuccinimide-preactivated slides served as substrates for immobilisation (Nexterion Slide H, Schott Nexterion/Peq-Lab, Erlangen, Germany) using a Nano-Plotter NP2.0 (GeSIM, Großerkmannshof, Germany), which employs piezo-driven pipetting tips to dispense peptide solutions. Microarray slides comprised 16 subarrays of doublets of each peptide. For each peptide, a volume of 1.2 nl was dispensed at a centre-to-centre spacing of 500 μm. During printing, temperature was maintained at 15 °C and air humidity at 65 %.
Jurkat T cell leukaemia cells were maintained in RPMI 1640 medium (PAN-Biotech, Aisenbach, Germany) supplemented with 10 % foetal calf serum at 37 °C in 5 % CO2. For the preparation of lysates, cells were resuspended in lysis buffer (1 % Triton X-100, 50 mM n-octyl-D-glucopyranoside (Fluka, Taufkirchen, Germany), 20 mM Tris, 1 mM EDTA, 150 mM NaCl, 1 mM Na3VO4, pH 7.5, and complete protease inhibitor cocktail (Roche Applied Science, Mannheim, Germany)). Incubation on ice for 1 h was followed by centrifugation at 20,000×g at 4 °C for 15 min to remove cell debris. Transmembrane proteins were extracted from lipid rafts by using N-octyl-D-glucopyranoside. Protein concentrations were measured by Bradford Assay.
(§3) Sixteen incubation chambers with identical subarrays consisting of peptides derived from binding motifs of signalling proteins (see ESM Table S1) were generated by attaching a clip-on frame to the microarray substrate (ProPlate Multiarray System, Grace Biolabs, Molecular Probes, Eugene, OR, USA). The typical incubation volume for the subarrays was 50 μl. Microarrays were either incubated with an α-pY antibody (α-pTyr 100, 9411, Cell Signalling, Frankfurt am Main, Germany) at the indicated concentrations or co-incubated with cell lysate at the indicated concentrations for 3 h at 4 °C. Additionally, in another set of experiments, recombinant GRB2-SH2 was incubated on microarrays alone or co-incubated with cell lysate employing an α-penta HIS antibody (34600, Qiagen, Hilden, Germany) for the detection of His-tagged GRB2-SH2.
(§4) After incubation, microarrays were washed three times with washing buffer (PBS, 0.05 % (w/v) BSA, 0.05 % (w/v) Tween-20). For the detection of signals, microarrays were incubated with a secondary α-mouse antibody conjugated with Alexa633 (A-21050, Invitrogen) at a concentration of 1 μg/ml for 15 min at RT followed by a last washing step with washing buffer. Microarrays were dried with nitrogen and scanned using a ProScanArray (PerkinElmer Life Sciences, Waltham, Massachusetts), and the data were analysed using ArrayPro Analyzer software (Media Cybernetics, Silver Spring, USA) as described before. Final data represented the mean signal intensities corrected for the median of a ring-shaped local background surrounding the respective peptide spot. Titrations with α-pY antibody and GRB2-SH2 were performed to calculate dissociation constants (see below).
For determination of EC50 values for competition with cell lysate, curves were fitted according to2 y=y0+Ae^−x/t with y0 as the signal intensity of the α-pY antibody or the recombinant GRB2-SH2 domain without cell lysate, A the amplitude, x the protein concentration in lysate, and t the decay constant. […]

[2] = system: SH2 domain of GRB2 (GRB2-SH2); conditions: Kd values of GRB2-SH2 described in recently published manuscript; ref [14]; cited from earlier work
Description: In contrast, the data points for LATpY191 and SHP1pY564, and SigpY437, ZAPpY319 and CDζpY72/83 were above or below the linear correlation defined by the first four peptides. […] SigpY437, in contrast, is a poor binder for which already low concent ...

[3] = molecular target: α-phosphotyrosine antibody (α-pTyr 100); assay: Titration of α-pY antibody on peptide microarrays; format: binding; conditions: for Kd: peptide microarray, α-pY antibody 0.06 to 6.66 nM, 3 h at 4 °C, indirect immunofluorescence (Alexa633), bimolecular binding isotherm (Eq. 1), average ± standard deviation, six independent experiments; for α-pY titration curve / binding: result in words, R^2 of 0.8 as cutoff for a binder
Method: as §1, §2, §3, §4
The resulting titration curves were fitted with Origin (OriginLab Corporation, v.6.1057, Northampton, USA) using a binding isotherm for a bimolecular interaction (Eq. 1):1 Fabs=Fmaxprot/Kd+prot Fabs represents the intensity of a microarray spot after background correction and [prot] the concentration of the titrated binder. Kd and Fmax were obtained from the fits.
To render this approach quantitative, first the affinities of the α-pY antibody towards the phosphotyrosine motifs of the microarrays were determined. […] The titration curves were fitted with a binding isotherm for a bimolecular interaction (Eq. 1, Fig. 2a, Table 1). In general, a coefficient of determination (R^2) of 0.8 was used as a cutoff in order to score a peptide as a binder. […] Regarding the poly-proline motif (PP) containing peptides present on the microarray, only on the peptide GAB2-509 in five experiments, a titration curve with an R^2 > 0.8 could be generated.

| Molecule | Kd [1] | binding to GRB2 / GRB2-SH2 (in words) [2] | Kd [3] | affinity of the α-pY antibody (in words) ([3]; compared with the other pY peptides) | α-pY titration curve / binding [3] | affinity for / binding to cellular proteome (in words) ([1]; competition of α-pY with cell lysate, FYB peptides) |
| --- | --- | --- | --- | --- | --- | --- |
| CSCC[C@H](NC(=O)[C@@H]1CCCN1C(=O)[C@H](CC(N)=O)NC(=O)[C@H](C)NC(=O)[C@H](CCC(=O)O)NC(=O)[C@@H](NC(=O)[C@H](Cc1ccc(OP(=O)(O)O)cc1)NC(=O)[C@H](Cc1ccccc1)NC(=O)CNC(=O)[C@@H]1CCCN1C(=O)[C@H](CC(N)=O)NC(=O)[C@H](CCCNC(=N)N)NC(=O)CNC(=O)[C@H](CCC(=O)O)NC(=O)[C@@H](N)CS)C(C)C)C(=O)N1CCC[C@H]1C(=O)N[C@H](C(N)=O)[C@@H](C)O [PLCγpY783] (H-CEGRNPGF[pY]VEANPMPT-NH2) | 7000 ± 2000 nM | good binder | 0.55 ± 0.33 nM | – | – | – |
| CC(C)C[C@H](NC(=O)[C@H](Cc1ccc(OP(=O)(O)O)cc1)NC(=O)CNC(=O)[C@@H]1CCCN1C(=O)[C@H](CC(N)=O)NC(=O)[C@H](Cc1c[nH]cn1)NC(=O)[C@H](Cc1ccc(O)cc1)NC(=O)[C@H](CC(=O)O)NC(=O)[C@H](CC(=O)O)NC(=O)[C@H](CCC(=O)O)NC(=O)[C@H](CC(=O)O)NC(=O)[C@H](CCC(=O)O)NC(=O)[C@@H](N)CS)C(=O)N[C@H](C(=O)N[C@H](C(=O)N[C@@H](CC(C)C)C(=O)N1CCC[C@H]1C(=O)N[C@@H](CC(=O)O)C(=O)N[C@@H](CO)C(=O)N[C@H](C(=O)N1CCC[C@H]1C(N)=O)[C@@H](C)O)C(C)C)C(C)C [LATpY132] (H-CEDEDDYHNPG[pY]LVVLPDSTP-NH2) | 11000 ± 13000 nM | good binder | 0.41 ± 0.38 nM | – | – | – |
| CC(C)[C@H](NC(=O)[C@H](CC(=O)O)NC(=O)[C@H](CC(=O)O)NC(=O)[C@H](Cc1ccc(OP(=O)(O)O)cc1)NC(=O)[C@@H](NC(=O)[C@H](CCC(=O)O)NC(=O)[C@H](CCC(N)=O)NC(=O)[C@H](CC(=O)O)NC(=O)[C@H](CC(=O)O)NC(=O)[C@H](CCC(=O)O)NC(=O)[C@@H](N)CS)C(C)C)C(=O)N[C@@H](C)C(=O)N[C@@H](CCC(=O)O)C(=O)N[C@@H](CCC(N)=O)C(=O)N[C@@H](CC(=O)O)C(N)=O [FYBpY595] (H-CEDDQEV[pY]DDVAEQD-NH2) | – | – | 0.77 ± 0.28 nM | – | – | – |
| CC(C)C[C@H](NC(=O)[C@H](CCC(=O)O)NC(=O)[C@H](CCC(=O)O)NC(=O)[C@@H]1CCCN1C(=O)[C@H](CC(=O)O)NC(=O)[C@H](CO)NC(=O)[C@H](Cc1ccc(OP(=O)(O)O)cc1)NC(=O)[C@@H]1CCCN1C(=O)[C@H](CO)NC(=O)[C@H](CCC(=O)O)NC(=O)[C@H](Cc1ccc(O)cc1)NC(=O)[C@@H](NC(=O)[C@@H](N)CS)C(C)C)C(=O)N[C@@H](CCCCN)C(=O)N[C@@H](CC(=O)O)C(N)=O [ZAPpY319] (H-CVYESP[pY]SDPEELKD-NH2) | 26000 ± 32000 nM | – | 0.6 ± 0.46 nM | – | – | – |
| CC[C@H](C)[C@H](NC(=O)[C@H](CCCNC(=N)N)NC(=O)[C@H](C)NC(=O)[C@@H]1CCCN1C(=O)[C@H](CCC(=O)O)NC(=O)[C@@H]1CCCN1C(=O)[C@@H](NC(=O)[C@H](Cc1ccc(OP(=O)(O)O)cc1)NC(=O)CNC(=O)[C@H](CC(=O)O)NC(=O)[C@H](CO)NC(=O)[C@H](CC(N)=O)NC(=O)[C@H](CC(C)C)NC(=O)[C@@H](NC(=O)[C@H](CC(=O)O)NC(=O)[C@@H](NC(=O)[C@@H](N)CS)[C@@H](C)CC)[C@@H](C)O)[C@@H](C)O)C(=O)N[C@H](C(N)=O)[C@@H](C)O [ZAPpY296] (H-CIDTLNSDG[pY]TPEPARIT-NH2) | 27000 ± 28000 nM | good binder | 1.32 ± 0.59 nM | relatively low affinity | – | – |
| CC[C@H](C)[C@H](NC(=O)CNC(=O)[C@H](CC(=O)O)NC(=O)[C@H](Cc1ccc(OP(=O)(O)O)cc1)NC(=O)[C@@H](NC(=O)[C@H](CC(=O)O)NC(=O)[C@H](CC(=O)O)NC(=O)[C@H](CC(=O)O)NC(=O)[C@@H](N)CS)[C@@H](C)CC)C(=O)N[C@@H](CCC(=O)O)C(=O)N[C@@H](CCC(=O)O)C(=O)N[C@@H](CCC(=O)O)C(=O)N[C@@H](CC(=O)O)C(N)=O [FYBpY625] (H-CDDDI[pY]DGIEEED-NH2) | 17000 ± 13000 nM | – | 0.46 ± 0.15 nM | – | – | – |
| CSCC[C@H](NC(=O)[C@H](CC(=O)O)NC(=O)[C@H](CC(C)C)NC(=O)[C@@H](N)CS)C(=O)NCC(=O)N[C@@H](CC(=O)O)C(=O)N[C@@H](CCC(=O)O)C(=O)N[C@H](C(=O)N[C@@H](Cc1ccc(OP(=O)(O)O)cc1)C(=O)N[C@@H](CC(=O)O)C(=O)N[C@@H](CC(=O)O)C(=O)N[C@H](C(=O)N[C@@H](CC(=O)O)C(=O)N[C@H](C(=O)N[C@@H](CO)C(=O)N[C@@H](CC(=O)O)C(=O)N[C@@H](Cc1ccccc1)C(N)=O)[C@@H](C)O)C(C)C)C(C)C [FYBpY651] (H-CLDMGDEV[pY]DDVDTSDF-NH2) | 12000 ± 9000 nM | – | 0.28 ± 0.09 nM | – | – | – |
| CLDIQDKPPAPPMRNT-NH2 [PAK6] | – | – | – | – | no titration curves could be generated | – |
| CC(C)C[C@H](NC(=O)[C@@H](NC(=O)[C@H](CC(=O)O)NC(=O)[C@H](Cc1ccc(OP(=O)(O)O)cc1)NC(=O)[C@H](CCC(=O)O)NC(=O)[C@H](CCC(=O)O)NC(=O)[C@H](CCCNC(=N)N)NC(=O)[C@H](CCCNC(=N)N)NC(=O)CNC(=O)[C@H](CC(C)C)NC(=O)[C@H](CC(N)=O)NC(=O)[C@H](CC(C)C)NC(=O)[C@H](CCC(=O)O)NC(=O)[C@H](CC(N)=O)NC(=O)[C@H](Cc1ccc(OP(=O)(O)O)cc1)NC(=O)[C@H](CC(C)C)NC(=O)[C@H](CCC(N)=O)NC(=O)[C@H](CC(N)=O)NC(=O)CCCCCNC(=O)[C@@H](N)CS)C(C)C)C(N)=O [CD3ζpY72/83] (H-C[Ahx]NQL[pY]NELNLGRREE[pY]DVL-NH2) | 25000 ± 27000 nM | – | 0.69 ± 0.61 nM | – | – | – |
| CGNKGRSGPLPPVPLGIA-NH2 [WAS334] | – | – | – | – | no titration curves could be generated | – |
| CC[C@H](C)[C@H](NC(=O)[C@H](CC(=O)O)NC(=O)[C@H](CC(=O)O)NC(=O)[C@H](Cc1ccc(OP(=O)(O)O)cc1)NC(=O)[C@@H](NC(=O)[C@H](CCC(=O)O)NC(=O)CNC(=O)[C@H](CC(=O)O)NC(=O)[C@H](CC(N)=O)NC(=O)[C@@H](N)CS)[C@@H](C)CC)C(=O)N[C@@H](C)C(=O)N[C@@H](CC(=O)O)C(=O)NCC(N)=O [FYBpY771] (H-CNDGEI[pY]DDIADG-NH2) | 5000 ± 1000 nM | – | 0.5 ± 0.23 nM | – | – | highest affinity of all four FYB peptides |
